Data on three molecules can be found in ChEMBL document CHEMBL3352582, “Protective effects of aloe-emodin on scopolamine-induced memory impairment in mice and H₂O₂-induced cytotoxicity in PC12 cells” (Bioorg Med Chem Lett, 2014).

Active and inactive are the calls of the source. The rule behind the calls is not given here.

The subject of data set [1] is Mus musculus. Briefly: Neuroprotective effect in Kunming mouse assessed as reduction in scopolamine-induced escape latency at 0.1 mg/kg, po qd administered for 15 days followed by 1 hr prior to trial session for 6 days by Morris water maze test. In kind it is functional, organism-based. Details: dose 0.1 mg/kg.
Data set [2] has as its system Mus musculus. Briefly: Neuroprotective effect in Kunming mouse assessed as increase in scopolamine-induced reduction in time spent in target quadrant at 0.1 mg/kg, po qd administered for 15 days followed by 1 hr prior to trial session for 6 days measured at day 5 by Morris water maze test relative to sham control. Type of data set: functional, organism-based. On the set-up: dose 0.1 mg/kg.

In data set [3] the test system is Mus musculus. Briefly: Neuroprotective effect in Kunming mouse assessed as increase in scopolamine-induced reduction in time spent in platform crossing at 0.1 mg/kg, po qd administered for 15 days followed by 1 hr prior to trial session for 6 days measured at day 5 by Morris water maze test relative to sham control. In kind it is functional, organism-based. Details: dose 0.1 mg/kg.

Data set [4] concerns Mus musculus. Nature of the data set: Neuroprotective effect in Kunming mouse assessed as increase in scopolamine-induced reduction in SOD level in hippocampus at 0.1 mg/kg, po qd administered for 15 days followed by 1 hr prior to trial session for 6 days relative to control. On the set-up: dose 0.1 mg/kg. Type of data set: functional, organism-based.
Data set [5] concerns Mus musculus. Briefly: Neuroprotective effect in Kunming mouse assessed as increase in scopolamine-induced reduction in GPx level in hippocampus at 0.1 mg/kg, po qd administered for 15 days followed by 1 hr prior to trial session for 6 days relative to control. Type of data set: functional, organism-based. On the set-up: dose 0.1 mg/kg.
The test system of data set [6] is Mus musculus. Nature of the data set: Neuroprotective effect in Kunming mouse assessed as reduction in scopolamine-induced increase in MDA level in hippocampus at 0.1 mg/kg, po qd administered for 15 days followed by 1 hr prior to trial session for 6 days relative to control. In kind it is functional, organism-based. Details: dose 0.1 mg/kg.
Data set [7] relates to Mus musculus. Briefly: Neuroprotective effect in Kunming mouse assessed as reversal of scopolamine-induced increase in AChE activity in hippocampus at 0.1 mg/kg, po qd administered for 15 days followed by 1 hr prior to trial session for 6 days. Details: dose 0.1 mg/kg. Type of data set: functional, organism-based.
Data set [8] concerns Mus musculus. Nature of the data set: Neuroprotective effect in Kunming mouse assessed as reversal of scopolamine-induced reduction in ACh level in hippocampus at 0.1 mg/kg, po qd administered for 15 days followed by 1 hr prior to trial session for 6 days. Type of data set: functional, organism-based. Details: dose 0.1 mg/kg.
The subject of data set [9] is Mus musculus. Briefly: Neuroprotective effect in Kunming mouse assessed as reduction in scopolamine-induced escape latency at 100 mg/kg, po qd administered for 15 days followed by 1 hr prior to trial session for 6 days by Morris water maze test. In kind it is functional, organism-based. On the set-up: dose 100 mg/kg.
Data set [10] relates to Mus musculus. Briefly: Neuroprotective effect in Kunming mouse assessed as reversal of scopolamine-induced effect on spatial memory performance at 100 mg/kg, po qd administered for 15 days followed by 1 hr prior to trial session for 6 days by Morris water maze test relative to sham control. Type of data set: functional, organism-based. On the set-up: dose 100 mg/kg.
For data set [11], the system named is Mus musculus. Nature of the data set: Neuroprotective effect in Kunming mouse assessed as reduction in scopolamine-induced impairment in spatial learning and memory at 25 to 100 mg/kg, po qd administered for 15 days followed by 1 hr prior to trial session for 6 days measured at day 5 by Morris water maze test relative to sham control. Type of data set: functional, organism-based.

Data set [12] has as its system Mus musculus. Briefly: Neuroprotective effect in Kunming mouse assessed as increase in scopolamine-induced reduction in time spent in target quadrant at 50 to 100 mg/kg, po qd administered for 15 days followed by 1 hr prior to trial session for 6 days measured at day 5 by Morris water maze test relative to sham control. Type of data set: functional, organism-based.

For data set [13], the system named is Mus musculus. Briefly: Neuroprotective effect in Kunming mouse assessed as increase in scopolamine-induced reduction in time spent in platform crossing at 50 to 100 mg/kg, po qd administered for 15 days followed by 1 hr prior to trial session for 6 days measured at day 5 by Morris water maze test relative to sham control. Type of data set: functional, organism-based.

Data set [14] deals with Mus musculus. Nature of the data set: Neuroprotective effect in Kunming mouse assessed as increase in scopolamine-induced reduction in swim speed at 25 to 100 mg/kg, po qd administered for 15 days followed by 1 hr prior to trial session for 6 days measured at day 5 by Morris water maze test relative to sham control. Type of data set: functional, organism-based.
For data set [15], the system named is Mus musculus. Nature of the data set: Neuroprotective effect in Kunming mouse assessed as increase in scopolamine-induced reduction in SOD level in hippocampus at 25 to 100 mg/kg, po qd administered for 15 days followed by 1 hr prior to trial session for 6 days relative to control. Type of data set: functional, organism-based.
Data set [16] has as its system Mus musculus. Briefly: Neuroprotective effect in Kunming mouse assessed as increase in scopolamine-induced reduction in GPx level in hippocampus at 25 to 100 mg/kg, po qd administered for 15 days followed by 1 hr prior to trial session for 6 days relative to control. Type of data set: functional, organism-based.
The subject of data set [17] is Mus musculus. Nature of the data set: Neuroprotective effect in Kunming mouse assessed as reduction in scopolamine-induced increase in MDA level in hippocampus at 25 to 100 mg/kg, po qd administered for 15 days followed by 1 hr prior to trial session for 6 days relative to control. In kind it is functional, organism-based.
The subject of data set [18] is Mus musculus. Briefly: Neuroprotective effect in Kunming mouse assessed as reversal of scopolamine-induced increase in AChE activity in hippocampus at 25 to 100 mg/kg, po qd administered for 15 days followed by 1 hr prior to trial session for 6 days. In kind it is functional, organism-based.
The subject of data set [19] is Mus musculus. Nature of the data set: Neuroprotective effect in Kunming mouse assessed as reversal of scopolamine-induced reduction in ACh level in hippocampus at 25 to 100 mg/kg, po qd administered for 15 days followed by 1 hr prior to trial session for 6 days. Type of data set: functional, organism-based.
In data set [20] the test system is Mus musculus. Nature of the data set: Neuroprotective effect in Kunming mouse assessed as reversal of scopolamine-induced increase in AChE activity in hippocampus at 100 mg/kg, po qd administered for 15 days followed by 1 hr prior to trial session for 6 days relative to sham control. Details: dose 100 mg/kg. Type of data set: functional, organism-based.
In data set [21] the target is T1, Acetylcholinesterase (Homo sapiens, UniProt P22303). Nature of the data set: Inhibition of AChE (unknown origin) by Ellman's method. A general note: DTNB colorimetry detects thiols as they appear.
T1 sequence (P22303 whole entry): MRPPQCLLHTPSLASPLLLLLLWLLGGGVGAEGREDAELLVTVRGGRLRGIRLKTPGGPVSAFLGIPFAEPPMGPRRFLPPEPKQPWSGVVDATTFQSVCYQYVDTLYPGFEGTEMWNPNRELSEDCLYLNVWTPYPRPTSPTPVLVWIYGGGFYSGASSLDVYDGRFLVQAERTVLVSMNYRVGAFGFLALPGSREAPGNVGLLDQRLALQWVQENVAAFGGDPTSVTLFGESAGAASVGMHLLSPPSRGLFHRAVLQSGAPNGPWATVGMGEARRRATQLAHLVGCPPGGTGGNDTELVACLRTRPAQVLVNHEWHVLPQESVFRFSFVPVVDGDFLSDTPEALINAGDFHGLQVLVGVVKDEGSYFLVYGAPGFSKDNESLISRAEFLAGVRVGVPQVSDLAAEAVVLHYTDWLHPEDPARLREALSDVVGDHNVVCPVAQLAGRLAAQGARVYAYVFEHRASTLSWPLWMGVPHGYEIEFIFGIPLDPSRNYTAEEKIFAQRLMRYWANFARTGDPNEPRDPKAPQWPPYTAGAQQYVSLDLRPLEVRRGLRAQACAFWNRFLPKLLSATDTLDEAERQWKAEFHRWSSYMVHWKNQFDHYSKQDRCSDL
Data set [22] can be described thus: Cytotoxicity against rat PC12 cells at 1 to 20 ug/ml by MTT assay. In kind it is cell-based. To be noted: pc-12.
A short description of data set [23]: Cytoprotective effect against H2O2-induced cell death in rat PC12 cells at 5 ug/ml incubated for 24 hrs prior to H2O2 challenge measured after 2 hrs by MTT assay. Type of data set: functional, PC-12. On the technique in general: Tetrazolium assays rely on reduction of a dye to a coloured formazan, in cell work by metabolically active cells.
Data set [24] can be described thus: Cytoprotective effect against H2O2-induced cell death in rat PC12 cells at 10 ug/ml incubated for 24 hrs prior to H2O2 challenge measured after 2 hrs by MTT assay. Type of data set: functional, PC-12.
Data set [25] is described as follows: Cytoprotective effect against H2O2-induced cell death in rat PC12 cells at 20 ug/ml incubated for 24 hrs prior to H2O2 challenge measured after 2 hrs by MTT assay. In kind it is functional, PC-12.
Data set [26] deals with PC-12. Briefly: Inhibition of H2O2-induced NO production in rat PC12 cells incubated for 24 hrs prior to H2O2 challenge measured after 2 hrs relative to control. Type of data set: functional, cell-based.
Data set [27] deals with PC-12. Nature of the data set: Inhibition of H2O2-induced NO production in rat PC12 cells at 5 ug/ml incubated for 24 hrs prior to H2O2 challenge measured after 2 hrs relative to control. In kind it is functional.
In data set [28] the test system is PC-12. Briefly: Inhibition of H2O2-induced NO production in rat PC12 cells at 10 ug/ml incubated for 24 hrs prior to H2O2 challenge measured after 2 hrs relative to control. In kind it is functional.
The test system of data set [29] is PC-12. Nature of the data set: Inhibition of H2O2-induced NO production in rat PC12 cells at 20 ug/ml incubated for 24 hrs prior to H2O2 challenge measured after 2 hrs relative to control. Type of data set: functional.
Data set [30] has as its system PC-12. Briefly: Inhibition of H2O2-induced LDH release in rat PC12 cells at 5 to 20 ug/ml incubated for 24 hrs prior to H2O2 challenge measured after 2 hrs relative to control. Type of data set: functional, cell-based. In general terms: LDH leaks from cells whose membrane has failed.
Data set [31] relates to PC-12. Briefly: Inhibition of intracellular ROS generation in rat PC12 cells at 5 ug/ml incubated for 24 hrs prior to H2O2 challenge measured after 2 hrs by fluorescence assay relative to control. In kind it is functional. To be noted: values are per cent of control.
In data set [32] the test system is PC-12. Briefly: Inhibition of intracellular ROS generation in rat PC12 cells at 10 ug/ml incubated for 24 hrs prior to H2O2 challenge measured after 2 hrs by fluorescence assay relative to control. As to conditions: values are per cent of control. In kind it is functional.
Data set [33] concerns PC-12. Nature of the data set: Inhibition of intracellular ROS generation in rat PC12 cells at 20 ug/ml incubated for 24 hrs prior to H2O2 challenge measured after 2 hrs by fluorescence assay relative to control. Type of data set: functional. As to conditions: values are per cent of control.
The test system of data set [34] is Mus musculus. Nature of the data set: Neuroprotective effect in po dosed Kunming mouse assessed as reduction in scopolamine-induced escape latency administered qd for 15 days followed by 1 hr prior to trial session for 6 days by Morris water maze test. Type of data set: functional, organism-based.
For data set [35], the system named is Mus musculus. Briefly: Neuroprotective effect in po dosed Kunming mouse assessed as increase in scopolamine-induced reduction in time spent in target quadrant administered qd for 15 days followed by 1 hr prior to trial session for 6 days by Morris water maze test. Type of data set: functional, organism-based.
The test system of data set [36] is Mus musculus. Nature of the data set: Neuroprotective effect in po dosed Kunming mouse assessed as increase in scopolamine-induced reduction in time spent in platform crossing administered qd for 15 days followed by 1 hr prior to trial session for 6 days by Morris water maze test. Type of data set: functional, organism-based.
Data set [37] has as its target T1, Acetylcholinesterase. To be noted: 40 ug/ml.
Description: Inhibition of AChE (unknown origin) at 40 ug/ml by Ellman's method
Data set [38] relates to PC-12. Briefly: Cytoprotective effect against H2O2-induced cell death in rat PC12 cells at 20 uM incubated for 24 hrs prior to H2O2 challenge measured after 2 hrs by MTT assay. In kind it is functional, cell-based.
Data set [39] deals with PC-12. Briefly: Inhibition of H2O2-induced NO production in rat PC12 cells at 20 uM incubated for 24 hrs prior to H2O2 challenge measured after 2 hrs relative to control. Type of data set: functional, cell-based.
In data set [40] the test system is PC-12. Briefly: Inhibition of H2O2-induced LDH release in rat PC12 cells at 20 uM incubated for 24 hrs prior to H2O2 challenge measured after 2 hrs relative to control. In kind it is functional, cell-based.

Turning to `C/C=C1\[C@H]2C=C(C)C[C@]1(N)c1ccc(=O)[nH]c1C2`, the outcome in the data set with Mus musculus [1], with Mus musculus [2], with Mus musculus [3], in the data set on Mus musculus [4], in the data set with Mus musculus [5] and with Mus musculus [6] was Active. The result in the data set with Mus musculus [7] and with Mus musculus [8] was Active.
As a reminder, the IC50 is the concentration that inhibits the measured activity by half. The term inhibition denotes the share of the control response that was lost under treatment. With `O=C1c2cccc(O)c2C(=O)c2c(O)cc(CO)cc21` [ALOE-EMODIN], the result in the data set with Mus musculus [9], in the data set on Mus musculus [10], in the data set with Mus musculus [11], in the data set with Mus musculus [12], with Mus musculus [13] and in the data set with Mus musculus [14] was Active. In addition, the outcome with Mus musculus [15], with Mus musculus [16], with Mus musculus [17], in the data set on Mus musculus [18] and in the data set on Mus musculus [19] was Active. Also, the outcome with Mus musculus [20] was inactive. The IC50 against Acetylcholinesterase [21] is 68 µM. Moreover, the Activity result in data set [22] was “Non-toxic”; in [23], 72.9%; in data set [24], 81%; in data set [25] it was 88.7%; in the data set on Mus musculus [34] it was “Dose-dependent effect”; with Mus musculus [35], “Dose-dependent effect”. Further, in the data set with Mus musculus [36], the Activity result is “Dose-dependent effect”. The inhibition result with PC-12 [26] was “Dose-dependent effect”; against Acetylcholinesterase [37] it was 70%. This molecule gave an inhibition at 5 µg/mL in the data set on PC-12 [27] of 27.8%. In the data set with PC-12 [28], this molecule returned an inhibition at 10 µg/mL of 46.4%. The molecule further came in with an inhibition at 20 µg/mL with PC-12 [29] of 64.3%. For the same molecule, in the data set with PC-12 [30], the inhibition entry is “Active”. In the data set with PC-12 [31], this molecule displayed a response, % of control at 5 µg/mL of 195%. The molecule also came in with a response, % of control at 10 µg/mL in the data set on PC-12 [32] of 165%. The response, % of control at 20 µg/mL in the data set with PC-12 [33] is 149%.
As to VITAMIN E, the outcome in the data set with PC-12 [38] was Active. This molecule also displayed an inhibition in the data set on PC-12 [39] of 76.2%. For the same molecule, in the data set on PC-12 [40], the inhibition result is “Active”.
